# Laboratory results: patent publication US4080454A, “5-M-Tolyloxyuracil, anti-ulcer agent” (priority 1976, dated 1978)
# Entries after “also recorded” stand apart in the source; their conditions may differ.
# Key:
# FUDR phosphorylase = settings: J. Med. Chem., 13, 461 (1970); cited from earlier work
# thymidine phosphorylase = settings: J. Med. Chem., 14, 812 (1971); cited from earlier work
# [1] = literature; cited from earlier work
# [2] = Metabolism of 5-(m-methylphenoxy)-2-(1H)pyrimidinone / 5-m-tolyloxyuracil in monkeys (C2 radiolabel); format: in vivo
# [3] = Metabolism of 5-(m-methylphenoxy)-2-(1H)pyrimidinone / 5-m-tolyloxyuracil in rats (C2 radiolabel); format: in vivo
# [4] = Plasma pharmacokinetics in human subjects; format: in vivo
# Experimental: (§1) In man, using single doses of 400 to 700 mg of 5-(m-methylphenoxy)-2-(1H)pyrimidinone, this drug had declined below the level of detectability by 2 hours post dose.
# In our studies in animals and man we have never been able to isolate 5-m-tolyloxyuracil in substantially pure form. Rather we have obtained samples of urine and blood plasma from animals and man consisting of a multitude of natural components, one of which we have identified as 5-m-tolyloxyuracil by comparison of its physical properties with material prepared in substantially pure form by the synthesis described in the present application. Indeed, in samples of plasma from human subjects treated with 5-m-tolyloxy-2(1H)pyrimidinone we have only detected peak levels of 5-m-tolyloxyuracil at the very low concentration of 40 ug/ml. When we say "in substantially pure form", we mean a purity of 95% or greater.
# [5] = system: stress induced gastric ulceration; assay: Cold-restraint stress induced gastric ulceration (antiulcer activity); format: in vivo, female rats; settings: for % incidence of lesions / Number of lesions: 3 h before stress; for Number of lesions: total in group
# Experimental: In order to test the antiulcer activity of 5-m-tolyloxyuracil, stress induced gastric ulceration was produced by immobilizing non-fasted, female rats in a supine position and placing them in a refrigerator at 12° C. for 3 hours. Experimental drugs were administered 3 hours before the initiation of the cold-restraint stress period. At the conclusion of the stress period, the rats were sacrificed, their stomachs inflated with 5 ml of water and removed. The isolated stomachs were placed in a 4 percent aqueous solution of formaldehyde to stiffen the serosal side of the inflated stomach. This procedure facilitates examination of the stomach which is accomplished by slitting the stomach along its greater curvature and noting the number and incidence of gastric lesions. Both control and experimental drug groups consisted of ten rats. A significant reduction in the number and incidence of gastric lesions characterizes antiulcer agents.
# The table below compares 5-m-tolyoxyuracil (Compound A) with 5-m-tolyloxy-2-thiouracil (Compound B), Carbenoxolone-Na (Compound C), and 5-(m-methylphenoxy)-2(1H)-pyrimidinone (Compound D).
# Percent incidence of lesions is defined as follows. [formula] Number of lesions is the total number of lesions in the experimental group.
# [6] = system: experimentally-induced gastric ulceration; settings: animals; cited from earlier work
# gastric ulcer = settings: human gastric ulcer patients; cited from earlier work
# [7] = Search for other metabolic modifications of 5-(m-methylphenoxy)-2-(1H)pyrimidinone; parameters: species or system rats, monkeys and human subjects; settings: in vivo
# Experimental: U.S. Pat. No. 3,922,345 discloses the method of treating peptic ulcers which comprises administering to a subject afflicted therewith a daily dose of about 0.60 to 21 mg per kg. of body weight of 5-(m-methylphenoxy)-2-(1H)-pyrimidinone. […] We have been unable to detect metabolic products resulting from (1) phenoxy ring hydroxylation, (2) oxidation of the m-methyl group or (3) ether cleavage.
# [8] = Metabolic conversion in human subjects; format: in vivo
# Experimental: as §1
# [9] = endogenously generated 5-m-tolyloxyuracil
# [10] = rats, cold-restraint stress, doses of the table
smiles,measurement,setting,value
O=c1[nH]cc(Oc2ccccc2)c(=O)[nH]1 [5-Phenoxyuracil],inhibition of FUDR phosphorylase,FUDR phosphorylase,poor activity
same,inhibition of thymidine phosphorylase,thymidine phosphorylase,poor activity
O=c1[nH]cc(F)c(=O)[nH]1 [5-fluorouracil],metabolic conversion / degradation,[1],"metabolically converted to 5,6-dihydrouracils which undergo ring opening with subsequent loss of the C2 pyrimidine carbon as carbon dioxide; also recorded: undergoes a reduction of the 5,6-double bond to give a 5,6-dihydrouracil which subsequently undergoes ring opening to an N-acetamido βalanine which then loses the C-2 pyrimidine carbon as carbon dioxide"
"Cc1cccc(Oc2c[nH]c(=O)[nH]c2=O)c1 [Compound A, 5-m-tolyloxyuracil]","metabolic degradation (ring opening, loss of C2 as carbon dioxide)",[2]; [9],does not undergo this metabolic degradation; also recorded: no appriciable quantities of radioactive CO2 were observed
same,"metabolic degradation (ring opening, loss of C2 as carbon dioxide)",[3]; [9],does not undergo this metabolic degradation; also recorded: no appriciable quantities of radioactive CO2 were observed
same,plasma half life compared with 5-(m-methylphenoxy)-2-(1H)pyrimidinone,[4]; human subjects,much longer plasma half life; also recorded: much longer plasma half-life
same,peak plasma concentration compared with parent drug,"[4]; human, endogenously generated after single 400 to 700 mg doses of 5-(m-methylphenoxy)-2-(1H)pyrimidinone",peak concentrations greater than that of parent drug
same,% incidence of lesions,"[5]; 32 mg/kg ip, control 100",56%
same,Number of lesions,"[5]; 32 mg/kg ip, control 58",19
same,% incidence of lesions,"[5]; 50 mg/kg ip, control 100",70%
same,Number of lesions,"[5]; 50 mg/kg ip, control 58",34
same,antiulcer activity (in words),[5]; [10],effective antiulcer agents at both doses tested since the number and incidence of lesions following drug treatment are significantly lower (P value < 0.05) than in controls
same,antiulcer activity (in words),"[5]; rats, cold-restraint stress, doses of the table, listed as 5-m-tolyloxyuracil",protects rats against ulceration
"Cc1cccc(Oc2c[nH]c(=S)[nH]c2=O)c1 [Compound B, 5-m-tolyloxy-2-thiouracil]",% incidence of lesions,"[5]; 10 mg/kg po, control 80",80%
same,Number of lesions,"[5]; 10 mg/kg po, control 31",50
same,antiulcer activity (in words),[5]; [10],inactive
"CC1(C(=O)O)CCC2(C)CCC3(C)C(=CC(=O)C4C5(C)CCC(OC(=O)CCC(=O)O)C(C)(C)C5CCC43C)C2C1 (stereo not shown) [Compound C, Carbenoxolone-Na]",protection from experimentally-induced gastric ulceration,[6],known to protect animals from experimentally-induced gastric ulceration
same,gastric antiulcer efficacy in clinical trials,gastric ulcer,effective gastric antiulcer agent
same,antiulcer activity (in words),[5]; 32 mg/kg,less active at 32 mg/kg at which dose the activity is not significant at the P = 0.05 level
same,% incidence of lesions,"[5]; 32 mg/kg ip, control 50",40%
same,Number of lesions,"[5]; 32 mg/kg ip, control 15",9
same,antiulcer activity (in words),[5]; 60 mg/kg,significantly active (P < 0.05)
same,% incidence of lesions,"[5]; 60 mg/kg ip, control 65",25%
same,Number of lesions,"[5]; 60 mg/kg ip, control 24",7
"Cc1cccc(Oc2cnc(=O)[nH]c2)c1 [Compound D, 5-(m-methylphenoxy)-2(1H)-pyrimidinone]",metabolic conversion to 5-m-tolyloxyuracil,[2],rapidly and efficiently metabolically converted to 5-m-tolyloxyuracil
same,metabolic conversion to 5-m-tolyloxyuracil,[3],rapidly and efficiently metabolically converted to 5-m-tolyloxyuracil
same,"other metabolic modifications (phenoxy ring hydroxylation, m-methyl oxidation, ether cleavage)",[7],do not occur to any detectable extent
same,time post dose to decline below the level of detectability,"[4]; human, single doses of 400 to 700 mg",≤ 2 h
same,metabolic conversion to 5-m-tolyloxyuracil,[8],rapidly and efficiently metabolically converted to 5-m-tolyloxyuracil
same,% incidence of lesions,"[5]; 10 mg/kg ip, control 90",60%
same,Number of lesions,"[5]; 10 mg/kg ip, control 42",12
same,% incidence of lesions,"[5]; 32 mg/kg ip, control 90",40%
same,Number of lesions,"[5]; 32 mg/kg ip, control 34",13
same,antiulcer activity (in words),[5]; [10],effective antiulcer agents at both doses tested since the number and incidence of lesions following drug treatment are significantly lower (P value < 0.05) than in controls
